From US7732658B2, “Composition and method for imaging cells” (Dana Farber Cancer Institute, Inc., priority 2002, dated 2010) come the findings set out here.

One test deals with 32D/p210-Luc cells. Put plainly: CML model, 32D/p210-Luc cells imaged in vivo. The arrangement: species or system mice. From the text:
FIG. 21 is a representation showing the results of a CML model used to evaluate the ABL-inhibitor AMN107.

The subject of test [1] is multiple myeloma (MM) model. Put plainly: multiple myeloma (MM) model, cells selected for growth in bone. Format: in vivo. The text has this: FIG. 19 is a representation of the results of generating a multiple myeloma (MM) model, that was created by selecting cells with affinity for growth in bone.
In a further test the test system is TS(4;11)-LucNeo cells. Put plainly: in vivo bioluminescence imaging of mice bearing MLL leukemia cell line TS(4;11), drug treatment. From the text:
FIG. 15 is a pictorial representation of treatment of mice bearing MLL leukemia cell line TS(4;11) with the FLT3 inhibitor PKC-412.

`Cc1cn(-c2cc(NC(=O)c3ccc(C)c(Nc4nccc(-c5cccnc5)n4)c3)cc(C(F)(F)F)c2)cn1` [AMN107]: in the test with 32D/p210-Luc cells (FIG. 22), the “tumor cell growth of 32D/p210-Luc cells (quantitative)” value is “inhibits tumor cell growth”. In addition, the “efficacy against 32D/p210-Luc cells in vivo (qualitative)” value in the test with 32D/p210-Luc cells (five animals, nine day assay, FIG. 21) is “efficacious”.

In the case of `Nc1ncnc2c1c(-c1cccc(OCc3ccccc3)c1)cn2C1CC(CN2CCCC2)C1` (stereo not drawn) [ADW], in test [1] (FIG. 19), the tumor burden result is on record as “reduction of tumor burden”. Further, in test [1] (FIG. 20), the “survival as compared to untreated control” value was “positively correlated with survival”.

For `CO[C@@H]1[C@H](N(C)C(=O)c2ccccc2)C[C@H]2O[C@]1(C)n1c3ccccc3c3c4c(c5c6ccccc6n2c5c31)C(=O)NC4` [PKC-412], the tumor cell size result with TS(4;11)-LucNeo cells (mice bearing TS(4;11) MLL cells, FIG. 16 left graph) was “reduces tumor cell size”. Besides, the “bioluminescent flux as compared to controls” value in the test with TS(4;11)-LucNeo cells (nude mice, TS(4;11)-LucNeo cells, 150 mg/kg/day over a two week period) is “constant bioluminescent flux”.
